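Results reflect a 48-hour exposure of cells in 96-well plates to compound at five concentrations. GI50: concentration for 50% inhibition of growth. TGI marks complete inhibition of growth.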
Columns and labels:
Test in all cases: growth of human tumour cells (NCI), 48 h
786-0 renal = tested on: 786-0 renal
A498 renal = tested on: A498 renal
A549 NSCLC = tested on: A549 NSCLC
ACHN renal = tested on: ACHN renal
BT-549 breast = tested on: BT-549 breast
CAKI-1 renal = tested on: CAKI-1 renal
CCRF-CEM leukemia = tested on: CCRF-CEM leukemia
COLO 205 colon = tested on: COLO 205 colon
EKVX NSCLC = tested on: EKVX NSCLC
HCC-2998 colon = tested on: HCC-2998 colon
HCT-116 colon = tested on: HCT-116 colon
HCT-15 colon = tested on: HCT-15 colon
HL-60(TB) leukemia = tested on: HL-60(TB) leukemia
HOP-62 NSCLC = tested on: HOP-62 NSCLC
HOP-92 NSCLC = tested on: HOP-92 NSCLC
HS 578T breast = tested on: HS 578T breast
HT29 colon = tested on: HT29 colon
IGROV1 ovarian = tested on: IGROV1 ovarian
K-562 leukemia = tested on: K-562 leukemia
KM12 colon = tested on: KM12 colon
M14 melanoma = tested on: M14 melanoma
MALME-3M melanoma = tested on: MALME-3M melanoma
MCF7 breast = tested on: MCF7 breast
MDA-MB-231 breast = tested on: MDA-MB-231 breast
MDA-MB-435 = tested on: MDA-MB-435
MDA-MB-468 breast = tested on: MDA-MB-468 breast
MOLT-4 leukemia = tested on: MOLT-4 leukemia
NCI-H226 lung = tested on: NCI-H226 lung
NCI-H23 lung = tested on: NCI-H23 lung
NCI-H460 lung = tested on: NCI-H460 lung
NCI-H522 lung = tested on: NCI-H522 lung
OVCAR-3 ovarian = tested on: OVCAR-3 ovarian
OVCAR-4 ovarian = tested on: OVCAR-4 ovarian
OVCAR-5 ovarian = tested on: OVCAR-5 ovarian
OVCAR-8 ovarian = tested on: OVCAR-8 ovarian
RXF 393 renal = tested on: RXF 393 renal
SF-268 CNS = tested on: SF-268 CNS
SF-295 CNS = tested on: SF-295 CNS
SF-539 CNS = tested on: SF-539 CNS
SK-MEL-2 melanoma = tested on: SK-MEL-2 melanoma
SK-MEL-28 melanoma = tested on: SK-MEL-28 melanoma
SK-MEL-5 melanoma = tested on: SK-MEL-5 melanoma
SK-OV-3 ovarian = tested on: SK-OV-3 ovarian
SN12C renal = tested on: SN12C renal
SNB-19 CNS = tested on: SNB-19 CNS
SR leukemia = tested on: SR leukemia
SW-620 colon = tested on: SW-620 colon
T-47D breast = tested on: T-47D breast
TK-10 renal = tested on: TK-10 renal
U251 CNS = tested on: U251 CNS
UACC-257 melanoma = tested on: UACC-257 melanoma
UACC-62 melanoma = tested on: UACC-62 melanoma
UO-31 renal = tested on: UO-31 renal

COc1ccc(N=Nc2c(N)nn3c(N)c(C#N)c(-c4ccccc4)nc23)cc1
GI50 (786-0 renal): 12.8 µM | TGI (786-0 renal): > 100 µM | GI50 (A498 renal): > 100 µM | TGI (A498 renal): > 100 µM | GI50 (A549 NSCLC): > 100 µM | TGI (A549 NSCLC): > 100 µM | GI50 (ACHN renal): 4.08 µM | TGI (ACHN renal): > 100 µM | GI50 (BT-549 breast): 4.29 µM | TGI (BT-549 breast): > 100 µM | GI50 (CAKI-1 renal): 4.58 µM | TGI (CAKI-1 renal): > 100 µM | GI50 (CCRF-CEM leukemia): > 100 µM | TGI (CCRF-CEM leukemia): > 100 µM | GI50 (COLO 205 colon): > 100 µM | TGI (COLO 205 colon): > 100 µM | GI50 (EKVX NSCLC): 8.82 µM | TGI (EKVX NSCLC): > 100 µM | GI50 (HCC-2998 colon): > 100 µM | TGI (HCC-2998 colon): > 100 µM | GI50 (HCT-116 colon): > 100 µM | TGI (HCT-116 colon): > 100 µM | GI50 (HCT-15 colon): > 100 µM | TGI (HCT-15 colon): > 100 µM | GI50 (HL-60(TB) leukemia): > 100 µM | TGI (HL-60(TB) leukemia): > 100 µM | GI50 (HOP-62 NSCLC): 3.7 µM | TGI (HOP-62 NSCLC): 41.5 µM | GI50 (HOP-92 NSCLC): 2.65 µM | TGI (HOP-92 NSCLC): 52.6 µM | GI50 (HS 578T breast): 3 µM | TGI (HS 578T breast): 65 µM | GI50 (HT29 colon): > 100 µM | TGI (HT29 colon): > 100 µM | GI50 (IGROV1 ovarian): 2.6 µM | TGI (IGROV1 ovarian): > 100 µM | GI50 (K-562 leukemia): > 100 µM | TGI (K-562 leukemia): > 100 µM | GI50 (KM12 colon): > 100 µM | TGI (KM12 colon): > 100 µM | GI50 (M14 melanoma): > 100 µM | TGI (M14 melanoma): > 100 µM | GI50 (MALME-3M melanoma): 5.46 µM | TGI (MALME-3M melanoma): > 100 µM | GI50 (MCF7 breast): 1.89 µM | TGI (MCF7 breast): > 100 µM | GI50 (MDA-MB-231 breast): 3.66 µM | TGI (MDA-MB-231 breast): 50.5 µM | GI50 (MDA-MB-435): > 100 µM | TGI (MDA-MB-435): > 100 µM | GI50 (MDA-MB-468 breast): 4.07 µM | TGI (MDA-MB-468 breast): > 100 µM | GI50 (MOLT-4 leukemia): > 100 µM | TGI (MOLT-4 leukemia): > 100 µM | GI50 (NCI-H226 lung): 2.56 µM | TGI (NCI-H226 lung): 24.8 µM | GI50 (NCI-H23 lung): 5.05 µM | TGI (NCI-H23 lung): > 100 µM | GI50 (NCI-H460 lung): 4.06 µM | TGI (NCI-H460 lung): > 100 µM | GI50 (NCI-H522 lung): 6.25 µM | TGI (NCI-H522 lung): > 100 µM | GI50 (OVCAR-3 ovarian): 4.18 µM | TGI (OVCAR-3 ovarian): > 100 µM | GI50 (OVCAR-4 ovarian): 2.78 µM | TGI (OVCAR-4 ovarian): 29.3 µM | GI50 (OVCAR-5 ovarian): > 100 µM | TGI (OVCAR-5 ovarian): > 100 µM | GI50 (OVCAR-8 ovarian): 4.61 µM | TGI (OVCAR-8 ovarian): > 100 µM | GI50 (RXF 393 renal): 3.17 µM | TGI (RXF 393 renal): 12 µM | GI50 (SF-268 CNS): 5.88 µM | TGI (SF-268 CNS): > 100 µM | GI50 (SF-295 CNS): 4.03 µM | TGI (SF-295 CNS): > 100 µM | GI50 (SF-539 CNS): 3.26 µM | TGI (SF-539 CNS): 18.6 µM | GI50 (SK-MEL-2 melanoma): 16.6 µM | TGI (SK-MEL-2 melanoma): > 100 µM | GI50 (SK-MEL-28 melanoma): > 100 µM | TGI (SK-MEL-28 melanoma): > 100 µM | GI50 (SK-MEL-5 melanoma): 9.02 µM | TGI (SK-MEL-5 melanoma): > 100 µM | GI50 (SK-OV-3 ovarian): 6.04 µM | TGI (SK-OV-3 ovarian): > 100 µM | GI50 (SN12C renal): 5.8 µM | TGI (SN12C renal): > 100 µM | GI50 (SNB-19 CNS): 5.06 µM | TGI (SNB-19 CNS): 44.1 µM | GI50 (SR leukemia): > 100 µM | TGI (SR leukemia): > 100 µM | GI50 (SW-620 colon): > 100 µM | TGI (SW-620 colon): > 100 µM | GI50 (T-47D breast): 2.75 µM | TGI (T-47D breast): > 100 µM | GI50 (TK-10 renal): 5.88 µM | TGI (TK-10 renal): > 100 µM | GI50 (U251 CNS): 3.94 µM | TGI (U251 CNS): > 100 µM | GI50 (UACC-257 melanoma): > 100 µM | TGI (UACC-257 melanoma): > 100 µM | GI50 (UACC-62 melanoma): 20.9 µM | TGI (UACC-62 melanoma): > 100 µM | GI50 (UO-31 renal): 8.22 µM | TGI (UO-31 renal): > 100 µM
